One test has as its system C57BL/6J mouse. In words: Mouse laser irradiation model: CNV assessment by fluorescent fundus photograph. Type of test: in vivo. The settings on record: 25 mg/kg orally once a day, versus Vehicle administration group. The method, then:
(§1) It is known that laser irradiation of a mouse ocular fundus induces choroidal angiogenesis and EMT (Reference document: Ishikawa, et al, Exp Eye Res. 2016 January; 142:19.25). So, zaltoprofen was assessed for the suppressive effect of CNV and EMT by using a mouse laser irradiation model. A zaltoprofen suspension was prepared by stirring 0.15 g of zaltoprofen (available from TOKYO CHEMICAL […] CO., LTD.) and 0.75 g of gum arabic (available from Wako Pure Chemical Industries, Ltd.) in 60 mL of water. A medium (Vehicle) was prepared by dissolving and stirring 0.75 g of gum arabic in 60 mL of water. Then, an ocular fundus of a C57BL/6J mouse (8-week old, N=13) was laser-irradiated at four points for each eye under a slit lump using a multi-color laser light coagulator. From directly after irradiation, a vehicle or a zaltoprofen solution (25 mg/kg) was orally administered once a day for three weeks, and the following assessments were conducted. For (1) and (3), the same individual was used. After two weeks from laser irradiation, Fluorescite Injection 500 mg (Alcon Japan Ltd.) was administered (1 mL/kg) from the caudal vein, after about 1 minute from the administration, and a fluorescent fundus photograph was taken. Four points for each eye from the taken fluorescent fundus photograph were scored on the basis of the following assessment criteria. [Assessment Criteria] [table]

In another test the test system is Vimentin. Nature of the test: Mouse laser irradiation model: EMT assessment, Vimentin staining. It counts as in vivo. Particulars: 25 mg/kg orally once a day for three weeks. The method, then: as §1, with “three” for “two”, “mice were euthanatized by cervical dislocation, and eyeballs were extracted, and dipped and fixed in 4% paraformaldehyde phosphate buffer (available” for “Fluorescite Injection 500 mg (Alcon Japan Ltd.) was administered (1 mL/kg)”, “Wako Pure Chemical Industries, Ltd.). […]” for “the caudal vein, after about 1 minute from the administration, and a fluorescent fundus photograph was taken. Four points for each eye from the taken fluorescent fundus photograph were scored on the basis of the following assessment criteria. [Assessment Criteria] [table]”

`CC(C(=O)O)c1ccc2c(c1)CC(=O)c1ccccc1S2` (stereo not shown) [Zaltoprofen, zaltoprofen]: the “CNV by laser irradiation (fluorescent fundus photographs)” value in the test with C57BL/6J mouse (FIG. 22) was “significantly suppressed”. The “CNV score by laser irradiation” value in the test on C57BL/6J mouse (two weeks after laser irradiation) was “significantly lower”. Also, in the test with Vimentin, the “EMT in the laser irradiation model” value is listed as “suppresses EMT”. In the test on Vimentin (versus Vehicle administration group), the Vimentin positive area result was “reduced”.
